Assay results as given in patent publication US20090186814A1, “Methods and Compositions for Reducing Ischemia-Derived Microvascular Damage” (priority 2005, published 2009).
Like-named read-outs stand apart in the source and are kept apart here. Ends that are not written are not given here. Peptide text beside a SMILES is read from it. * marks the point of attachment. Cbz = O=C(OCc1ccccc1)*; CH2F = FC*

Columns and labels:
rabbit femoral arteries = details: in vivo rabbit femoral arteries; cited from earlier work
rat myocardium = details: in vivo rat myocardium; cited from earlier work
caspase-3 [1] = details: cited from earlier work
caspase-3 [2] = details: myocardium; cited from earlier work
adult rat cardiomyocytes = details: cited from earlier work
[3] = system: endothelial cells and myocytes of porcine hearts; assay: TUNEL staining and electron microscopy of porcine cardiac tissue 4 hours after reperfusion; format: in vivo, pig
Method: (§1) At the end of the reperfusion, 1 -mm-thick transverse sections of mouse hearts were incubated in triphenyltetrazolium chloride solution (TTC) (1% in phosphate buffer, pH 7.4) at 37° C. for 15 minutes as described in Inagaki, K. et al., Circulation 108:869-875 (2003) to determine the viable myocardium. One cm-thick transverse segments of the hearts were stained with TTC. Infarct size was expressed as a percentage of the total area at risk. Immunohistochemistry was performed on cardiac tissue two hours after reperfusion in murine hearts (n=5 for each group) as described in Vakeva, A. P., et al., Circulation 97:2259-2267 (1998). Hearts were immediately frozen in Optimal Cutting Temperature (OCT) Compound, and 5-μm-thick cryosections were obtained. Sections were fixed with 4% formaldehyde, blocked with 1 % normal donkey serum and incubated with mouse monoclonal anti-(x-actinin antibody (Sigma-Aldrich) or goat anti-PECAM-1 antibody (Santa Cruz Biochemicals) to distinguish between endothelial cells and myocytes. Secondary antibody treatments were carried out using goat anti-mouse IgG antibody conjugated with FITC or donkey anti-goat lgG antibody conjugated with FITC (Molecular Probe). Terminal deoxynucleotidyl transferase-mediated dUTP nick-end labeling (TUNEL) staining was performed for detection of apoptotic cells (Roche) and nuclei were counterstained with 4, 6-diamidino-2-phenylindole (DAPI; Sigma-Aldrich). Tissue samples from the non-ischemic area were used as negative control. TUNEL-positive nuclei were counted in a total of 1,500 myocytes and 500 of endothelial cells over several random fields.
Immunohistochemistry was performed on cardiac tissue as described in Example 1 with the exception that immunohisotchemistry was performed 4 hours after reperfusion in porcine hearts (n=3 for each group).
Electron microscopy study was performed on porcine cardiac tissue 4 hours after reperfusion (n=3 for each group). Samples taken from the mid-myocardium were fixed (FIG. 3A) and prepared as previously reported in Gottlieb, R. A., et al., J. Clin Invest. 94:1621-1628 (1994). Ultra-thin sections were stained with uranyl acetate lead citrate and examined with the H300 (Hitachi) electron microscopy. All other methods were as previously described in Examples 1 and 2.

Yorkshire swine = format: in vivo, pig; design: key to CFR(Cx) / CFR(LAD): hyperemic average peak velocity ÷ baseline average peak velocity; details: for CFR(LAD): adenosine hyperemia; for CFR(Cx): unaffected left circumflex artery
Method: Yorkshire swine (30-45kg) were maintained during the every procedure under anesthesia by inhaled isoflurane (1-2%). A bolus of 300 IU/kg heparin was administered intravenously through the sheath (6 French) placed in the carotid artery. A 10 mm, over-the-wire angioplasty balloon was placed in the left anterior descending artery (LAD) proximal to the first diagonal branch. The balloon was inflated to occlude the LAD for 30 minutes. At the last 1 minute of a 30-minute ischemia, Tat-conjugated δV1-1 (250 ng/kg) or saline was infused at 1 mL/minute for 1 minute through the guide-wire lumen of the balloon catheter (n=9 for each group). Left ventriculogram (LVG) was obtained (40° left anterior oblique projection, 30 frames/sec) to measure cardiac function at 5 time points; before ischemia (baseline), 30 minutes, 24 hours, 5 days, and 10 days after ischemia (n=9 for each group). Ejection fraction (EF) and hypokinetic area were calculated using the software (Plus Plus, Sanders Data System, Calif.) with elimination of frames after premature ventricular contraction beats. Blood pressure and heart rate were measured just before LVG measurements at each time point through the water-filled catheter (Table 1). Coronary flow was measured by a 0.014″ Doppler-tipped guide wire (Flowire, JOMED Inc.) in the LAD, and the unaffected, left circumflex artery (LCx). The wire tip was placed 2 cm distal from the balloon-occluded site in the LAD. After stable baseline flow velocity was recorded, adenosine [endothelium-independent vasodilator; 48 μg; Suryapranata, H., et al., Circulation 89:1109-1117 (1994)] was infused intracoronarily to induce hyperemia (a transient increase in coronary blood flow through microvascular vasodilation) at 5 time points: before ischemia (baseline), 30 minutes, 24 hours, 5 days, and 10 days after ischemia (n=9 for each group). Bradykinin [endothelium-dependent vaodilator, 0.2ml of a 3×10^−6M in saline; Rodriguez-Sinovas, A., et al., J. Appl. Physiol. 95:81-88 (2003)] was also infused intracoronary before ischemia and 24 hours after reperfusion (n=6 for each group). Coronary flow reserve was calculated by dividing the average peak velocity (APV) at hyperemic phase by the baseline APV as described in Suryapranata, H., et al., Circulation 89:1109-1117 (1994). After reperfusion, to determine the area at risk in porcine hearts, LAD ligation was performed at the balloon-occluded site and Evan's Blue (0.0025%) was perfused as previously described in Inagaki, K., et al., Circulation 2304-2307 (2003). All other methods were performed as described in Example 1.

mouse hearts = assay: Ex vivo model of global ischemia and reperfusion injury, Langendorff-perfused mouse hearts (WT and δV1-1 transgenic)
Method: Transgenic mice (TG) that selectively express δV1-1 in myocytes were created using α- myosin heavy chain promoter. Hah, H. S., et al., Circ. Res. 91:741-748 (2002). Hemodynamic and morphometric parameters in these transgenic mice, as measured by echocardiographic measurements in vivo, were not different from those measured in wild type mice (WT). Inagaki, K., et al., Circulation 108:869-875 (2003). Mice were heparinized (4000U/kg IP) and anesthetized with sodium pentobarbital (200mg/kg IP). Hearts were perfused with an oxygenated Krebs-Henseleit buffer at 37° C. in a Langendorff system as previously described in Inagaki, K., et al., Circulation 108:869-875 (2003). Hearts were subjected to a 30-minute global ischemia and a 120-minute full reperfusion. The coronary flow rate was kept constant at 3 mL/minute (0.04L/min/g; initial coronary perfusion pressure: WT 67.4±5.1, WT+δV1-1 61.0±4.6, TG 62.6±3.9, TG+δV1-1 64.6±5.4 mmHg; PENS, n=5 for each group; FIG. 1) using an adjustable-speed rotary pump during the experiment to provide 60-80 mmHg of initial coronary perfusion pressure (CPP) as previously reported in Webster, K. A., et al., J. Clin. Invest. 104:239-252 (1999). CPP was measured through a sidearm in the Langendorff system. Coronary vascular resistance (CVR) was defined as CPP divided by coronary flow rate. Hearts were perfused with Tat-conjugated δV1-1 [50 nmol/L; Tat-conjugated δV1-1 described in Chen, L. et al., Proc. Natl. Acad. Sci. U.S.A. 98:11114-11119 (2001)] or vehicle (control) during the first 20 minutes of reperfusion (n=5 for each group). Coronary perfusion effluent was collected to determine creatine phosphokinase (CPK) release.
as §1
Data are expressed as mean±SEM. Two-way ANOVA for repeated measures was used for time-course of cardiac function and vascular function, 1-way factorial ANOVA with Fisher's test for multiple comparisons, and unpaired or paired student's t-test for difference between 2 groups. P<0.05 was considered statistically significant.

[4] = electron microscopy, 4 hours after reperfusion
[5] = electron microscopy, 4 hours after reperfusion, listed as δV1-
[6] = four hours after reperfusion, TUNEL, n=3
[7] = LAD, Baseline (before ischemia)
[8] = further δV1-1 infusion to the transgenic hearts
[9] = transgenic mouse hearts, exogenous δV1-1
[10] = wild type hearts, exogenous δV1-1
[11] = wild type hearts, δV1-1 delivered through coronary arteries, 50 nmol/L, first 20 minutes of reperfusion

## COC(=O)C[C@H](NC(=O)[C@H](C)NC(=O)[C@@H](NC(=O)OCc1ccccc1)C(C)C)C(=O)CF [ZVADfmk] (Cbz-Val-Ala-Asp(OMe)-CH2F)
Rabbit femoral arteries
  staurosporin-induced endothelial apoptosis: reduces
Rat myocardium
  reperfusion injury: reduces reperfusion injury

## CC(=O)c1c(O)c(C)c(O)c(Cc2c(O)c3c(c(C(=O)/C=C/c4ccccc4)c2O)OC(C)(C)C=C3)c1O [rottlerin]
caspase-3 [1]
  caspase-3 activity: attenuated

## δV1-1: δPKC inhibitor peptide, SEQ ID NO:1 (SFNSYELGSL), amino acids 8-17 of rat δPKC; used Tat-conjugated in the examples (also: Tat conjugate in examples; listed as Rattus norvegicus)
caspase-3 [2]
  reperfusion-induced caspase-3 activity: reduced
Adult rat cardiomyocytes
  hyperglycemia-induced apoptosis: inhibits
Adult rat cardiomyocytes; hyperglycemia
  free radical formation: inhibits
[3]; [4]
  endothelial cell swelling: minimal swelling
  microvasculature lumen: patent
  myocyte damage (contraction bands, swollen mitochondria): no such pathological changes were observed
  obstruction of capillaries by red and white blood cells: rarely seen
[3]; [5]
  endothelial cell swelling: slight endothelial swelling
  myocyte damage (contraction bands, swollen mitochondria): neither contraction bands nor swollen mitochondria
[3]; [6]
  decrease of apoptosis in endothelial cells: about 70%
  decrease of apoptosis in myocytes: about 70%
Yorkshire swine; 30 min R
  CFR(LAD): 2.00 ± 0.20
  CFR(Cx): 1.73 ± 0.21
Yorkshire swine; 24 hours after reperfusion, n=6
  coronary flow reserve in LAD following bradykinin infusion: did not decrease
Yorkshire swine; 24 hr R
  CFR(LAD): 2.50 ± 0.24
  CFR(Cx): 1.96 ± 0.04
Yorkshire swine; 5 days R
  CFR(LAD): 2.68 ± 0.21
  CFR(Cx): 2.01 ± 0.14
Yorkshire swine; 10 days R
  CFR(LAD): 2.67 ± 0.27
  CFR(Cx): 2.46 ± 0.20
Yorkshire swine; 10 days after ischemia, n=9
  ejection fraction: 69.9±1.6%
  hypokinetic area: 4.7±2.0%
Yorkshire swine; Baseline (before ischemia)
  CFR(LAD): 2.52 ± 0.16
  CFR(Cx): 2.44 ± 0.10
Yorkshire swine; Cx, 30 min R
  b-APV (baseline average peak flow velocity): 20.3 ± 3 cm/s
  h-APV (hyperemia average peak flow velocity): 37 ± 3 cm/s
Yorkshire swine; Cx, 24 hr R
  b-APV (baseline average peak flow velocity): 15 ± 2 cm/s
  h-APV (hyperemia average peak flow velocity): 30 ± 4 cm/s
Yorkshire swine; Cx, 5 days R
  b-APV (baseline average peak flow velocity): 25 ± 5 cm/s
  h-APV (hyperemia average peak flow velocity): 55 ± 10 cm/s
Yorkshire swine; Cx, 10 days R
  b-APV (baseline average peak flow velocity): 25 ± 3 cm/s
  h-APV (hyperemia average peak flow velocity): 55 ± 5 cm/s
Yorkshire swine; Cx, Baseline (before ischemia)
  b-APV (baseline average peak flow velocity): 24 ± 2 cm/s
  h-APV (hyperemia average peak flow velocity): 61 ± 3 cm/s
Yorkshire swine; LAD, 30 min R
  b-APV (baseline average peak flow velocity): 27 ± 4 cm/s
  h-APV (hyperemia average peak flow velocity): 49 ± 4 cm/s
Yorkshire swine; LAD, 24 hr R
  b-APV (baseline average peak flow velocity): 18 ± 1 cm/s
  h-APV (hyperemia average peak flow velocity): 46 ± 6 cm/s
Yorkshire swine; LAD, 5 days R
  b-APV (baseline average peak flow velocity): 24 ± 3 cm/s
  h-APV (hyperemia average peak flow velocity): 67 ± 9 cm/s
Yorkshire swine; LAD, 10 days R
  b-APV (baseline average peak flow velocity): 25 ± 4 cm/s
  h-APV (hyperemia average peak flow velocity): 57 ± 6 cm/s
Yorkshire swine; [7]
  b-APV (baseline average peak flow velocity): 24 ± 3 cm/s
  h-APV (hyperemia average peak flow velocity): 58 ± 7 cm/s
Yorkshire swine; all time points
  resting APV and coronary flow reserve in left circumflex artery (LCx, control artery): remained normal
Yorkshire swine; intracoronary treatment at the time of reperfusion, 10 days after ischemia, n=9
  infarct size: 4.4±1.1%
Yorkshire swine; pig, in vivo
  blood pressure, heart rate or vessel diameter vs. control group: no significant differences
Yorkshire swine; δV1-1-treated pigs
  time until coronary flow reserve (adenosine, LAD) was normalized: ≤ 24 h
Yorkshire swine; δV1-1-treated pigs, 250 ng/kg intracoronary at last 1 minute of ischemia
  coronary flow reserve following adenosine infusion in LAD after reperfusion: minor decrease
Mouse hearts; further treatment of transgenic mouse hearts
  coronary vascular resistance (CVR) during reperfusion: significantly minimized the rise of CVR
Mouse hearts; [8]
  CPK release: unaffected
  infarct size: unaffected
Mouse hearts; [9]
  TUNEL-positive myocytes: without any further effect
  decrease of TUNEL-positive endothelial cells: 80%
Mouse hearts; [10]
  reduction of number of TUNEL positive endothelial cells: 80%
  reduction of number of TUNEL positive myocytes: 80%
Mouse hearts; [11]
  decrease in CPK release: about 70%
  decrease in infarct size: about 70%
